The test system of one test is HCT-15. Put plainly: Antiproliferative activity against human HCT15 cells measured after 72 hrs by EZ-Cytox assay. As to conditions: HCT-15, 72 h. The format is functional, cell-based.
For the next test, the system named is T47D. Put plainly: Antiproliferative activity against human T47D cells measured after 72 hrs by EZ-Cytox assay. The format is functional, cell-based.
Another test concerns DU-145. Put plainly: Antiproliferative activity against human DU145 cells measured after 72 hrs by EZ-Cytox assay. The format is functional, cell-based. As to conditions: DU-145, 72 h.
The test system of another test is HeLa. Put plainly: Antiproliferative activity against human HeLa cells measured after 72 hrs by EZ-Cytox assay. The format is functional, cell-based.
In test [1] the target is T1, DNA topoisomerase 1 (Homo sapiens) (UniProt P11387).
T1 sequence (whole entry): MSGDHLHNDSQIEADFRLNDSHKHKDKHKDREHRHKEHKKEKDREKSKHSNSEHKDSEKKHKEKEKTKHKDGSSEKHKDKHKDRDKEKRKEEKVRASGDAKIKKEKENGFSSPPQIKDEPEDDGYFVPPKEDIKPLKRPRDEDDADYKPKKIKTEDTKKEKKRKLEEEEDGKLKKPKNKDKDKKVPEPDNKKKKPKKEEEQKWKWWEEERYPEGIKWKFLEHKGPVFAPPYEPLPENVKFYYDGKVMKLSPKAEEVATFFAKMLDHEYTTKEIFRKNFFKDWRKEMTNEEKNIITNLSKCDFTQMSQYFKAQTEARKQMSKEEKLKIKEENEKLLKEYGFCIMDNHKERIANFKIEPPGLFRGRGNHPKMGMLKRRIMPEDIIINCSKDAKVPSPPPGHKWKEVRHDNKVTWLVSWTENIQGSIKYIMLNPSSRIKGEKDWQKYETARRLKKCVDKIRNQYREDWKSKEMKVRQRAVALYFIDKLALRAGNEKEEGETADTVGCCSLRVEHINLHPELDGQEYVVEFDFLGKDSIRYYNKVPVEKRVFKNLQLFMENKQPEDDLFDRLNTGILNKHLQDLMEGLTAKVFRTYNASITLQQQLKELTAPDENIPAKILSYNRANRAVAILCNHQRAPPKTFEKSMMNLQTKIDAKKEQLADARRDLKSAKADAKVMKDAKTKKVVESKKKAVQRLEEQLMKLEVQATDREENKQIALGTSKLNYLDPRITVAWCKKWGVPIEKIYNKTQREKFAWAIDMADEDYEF
Put plainly: Inhibition of recombinant human topoisomerase 1-mediated relaxation of supercoiled pBR322 DNA at 100 uM measured after 30 mins by ethidium bromide staining based agarose gel electrophoresis relative to control.

The target in test [2] is DNA topoisomerase 2-alpha (Homo sapiens) (UniProt P11388). Put plainly: Inhibition of recombinant human topoisomerase 2alpha-mediated relaxation of supercoiled pBR322 DNA at 100 uM measured after 30 mins by ethidium bromide staining based agarose gel electrophoresis relative to control.
Sequence of DNA topoisomerase 2-alpha (Homo sapiens) (P11388 whole entry): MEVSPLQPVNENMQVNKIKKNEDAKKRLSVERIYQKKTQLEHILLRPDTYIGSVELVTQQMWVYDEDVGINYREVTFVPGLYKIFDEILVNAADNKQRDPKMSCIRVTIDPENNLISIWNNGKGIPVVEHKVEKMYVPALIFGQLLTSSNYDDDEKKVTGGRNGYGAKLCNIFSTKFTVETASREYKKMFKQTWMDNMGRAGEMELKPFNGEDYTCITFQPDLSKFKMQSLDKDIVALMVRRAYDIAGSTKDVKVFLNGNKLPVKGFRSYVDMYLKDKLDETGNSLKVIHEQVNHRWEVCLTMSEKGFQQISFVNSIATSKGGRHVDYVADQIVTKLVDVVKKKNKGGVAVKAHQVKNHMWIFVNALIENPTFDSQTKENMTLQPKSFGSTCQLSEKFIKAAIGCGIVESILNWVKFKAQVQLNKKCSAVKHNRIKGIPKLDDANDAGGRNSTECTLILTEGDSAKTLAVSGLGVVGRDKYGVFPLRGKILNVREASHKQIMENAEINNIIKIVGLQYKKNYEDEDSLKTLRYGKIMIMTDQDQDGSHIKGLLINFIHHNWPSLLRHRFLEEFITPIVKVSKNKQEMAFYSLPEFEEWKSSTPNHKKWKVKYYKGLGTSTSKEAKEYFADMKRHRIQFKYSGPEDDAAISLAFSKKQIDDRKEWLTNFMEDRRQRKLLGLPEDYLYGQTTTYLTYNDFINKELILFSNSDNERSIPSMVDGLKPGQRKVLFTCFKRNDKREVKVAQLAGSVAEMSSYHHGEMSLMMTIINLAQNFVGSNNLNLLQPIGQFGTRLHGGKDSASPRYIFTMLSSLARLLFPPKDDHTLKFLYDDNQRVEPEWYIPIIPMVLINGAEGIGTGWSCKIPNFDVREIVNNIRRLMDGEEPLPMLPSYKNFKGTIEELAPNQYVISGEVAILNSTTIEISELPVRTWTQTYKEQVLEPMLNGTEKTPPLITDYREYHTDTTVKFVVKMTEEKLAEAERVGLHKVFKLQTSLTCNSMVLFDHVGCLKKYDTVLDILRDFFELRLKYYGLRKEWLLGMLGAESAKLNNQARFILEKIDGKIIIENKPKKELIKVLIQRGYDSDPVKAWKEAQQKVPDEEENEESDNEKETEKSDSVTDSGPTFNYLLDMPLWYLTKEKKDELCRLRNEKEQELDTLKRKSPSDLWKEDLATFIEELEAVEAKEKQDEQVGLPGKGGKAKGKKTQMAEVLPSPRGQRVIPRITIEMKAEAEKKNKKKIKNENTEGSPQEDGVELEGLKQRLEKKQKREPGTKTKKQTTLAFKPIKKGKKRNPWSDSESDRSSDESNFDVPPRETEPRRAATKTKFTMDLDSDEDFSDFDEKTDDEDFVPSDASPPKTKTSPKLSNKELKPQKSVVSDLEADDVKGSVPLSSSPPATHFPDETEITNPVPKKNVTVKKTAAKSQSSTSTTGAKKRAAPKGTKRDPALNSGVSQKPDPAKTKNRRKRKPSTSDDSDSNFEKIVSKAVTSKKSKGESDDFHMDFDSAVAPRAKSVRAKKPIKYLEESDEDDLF
Test [3] shares this target. Put plainly: Inhibition of recombinant human topoisomerase 2alpha-mediated relaxation of supercoiled pBR322 DNA at 20 uM measured after 30 mins by ethidium bromide staining based agarose gel electrophoresis relative to control.

Bounds are passed on as bounds.

As for `Oc1cccc(-c2cc(-c3ccccc3Cl)nc3c2Cc2cc(O)ccc2-3)c1`, the IC50 came out at 0.00133 µM with HCT-15, 0.78 µM in the test with T47D, 0.81 µM in the test with DU-145 and 0.91 µM with HeLa. For the same molecule, the inhibition in test [1] worked out at 5.6%; in test [2], 100%; in test [3], 32.3%.

Regarding `Oc1ccc2c(c1)-c1nc(-c3ccccc3)cc(-c3ccccc3)c1C2`, the IC50 is 3.13 µM with HCT-15, 0.19 µM in the test on T47D, 3.49 µM in the test on DU-145 and 4.38 µM in the test on HeLa. For the same molecule, the inhibition in test [1] was found to be 2.6%; in test [2], 79.9%; in test [3], 5.5%.

Consider `Oc1cccc(-c2cc(-c3cccc(C(F)(F)F)c3)nc3c2Cc2c(O)cccc2-3)c1`, for which the IC50 was found to be 2.69 µM in the test on HCT-15, 1.91 µM in the test on T47D, 1.62 µM in the test with DU-145 and 4.17 µM in the test on HeLa. Besides, the inhibition in test [1] was found to be 5.6%; in test [2], 67.3%; in test [3] it was 40.5%.

Consider `Oc1ccccc1-c1cc(-c2ccccc2Cl)c2c(n1)-c1cccc(O)c1C2`, for which the IC50 in the test on HCT-15 worked out at 4.12 µM; with T47D, 3.03 µM; with DU-145, 4.03 µM; in the test on HeLa, 4.59 µM. Moreover, the inhibition in test [1] amounted to 23.7%; in test [2], 79.2%; in test [3], 1.8%.

Consider `Oc1cccc(-c2cc(-c3ccc(Cl)cc3)nc3c2Cc2cc(O)ccc2-3)c1`, for which the IC50 in the test on HCT-15 turned out to be 0.85 µM; in the test with T47D, 1.5 µM; with DU-145 it was 1.28 µM; in the test on HeLa, 1.09 µM. In addition, the inhibition stood at 0% in test [1], 95% in test [2] and 11.2% in test [3].

On to `Oc1ccccc1-c1cc(-c2ccccc2C(F)(F)F)nc2c1Cc1cccc(O)c1-2`, for which the IC50 was found to be 1.64 µM in the test with HCT-15, 0.75 µM in the test on T47D, 2 µM with DU-145 and 1.99 µM with HeLa. Further, the inhibition in test [1] amounted to 0%; in test [2], 84.8%; in test [3], 4%.

In the case of `Oc1ccccc1-c1cc(-c2cccc(Cl)c2)c2c(n1)-c1c(O)cccc1C2`, the 50% inhibitory concentration (IC50) in the test with HCT-15 worked out at 2.46 µM; in the test with T47D, 1.97 µM; in the test on DU-145 it was 2.82 µM; with HeLa, 14.3 µM. Moreover, the inhibition in test [1] was 0%; in test [2] it was 74.5%; in test [3], 2.4%.

Take `Oc1cccc(-c2cc(-c3ccc(Cl)cc3)nc3c2Cc2cccc(O)c2-3)c1`: the IC50 in the test with HCT-15 is 3.05 µM; in the test with T47D, 3.5 µM; with DU-145, 0.36 µM; in the test with HeLa, 6.74 µM. Moreover, the inhibition in test [1] was 7.4%; in test [2], 85.2%; in test [3], 26.5%.

Regarding `Oc1ccc(-c2cc(-c3ccc(F)cc3)nc3c2Cc2cccc(O)c2-3)cc1`, the IC50 in the test on HCT-15 was more than 50 µM; in the test with T47D it was 24.5 µM; in the test with DU-145, more than 50 µM; in the test with HeLa, more than 50 µM. For the same molecule, the inhibition in test [1] worked out at 1.2%; in test [2], 75.3%; in test [3], 1.4%.

`Oc1cccc(-c2cc(-c3ccccc3Cl)nc3c2Cc2c(O)cccc2-3)c1`: the IC50 was 0.8 µM in the test with HCT-15, 1.53 µM in the test on T47D, 0.92 µM with DU-145 and 0.59 µM in the test with HeLa. For the same molecule, the results for the inhibition in test [1], in test [2] and in test [3] were 0%, 100% and 24.9%, respectively.

As for `Oc1cccc(-c2cc(-c3ccc(C(F)(F)F)cc3)nc3c2Cc2cccc(O)c2-3)c1`, the IC50 in the test with HCT-15 was 11.3 µM; with T47D, 2.14 µM; in the test with DU-145, 2.22 µM; with HeLa, 6.66 µM. In addition, the inhibition in test [1] stood at 0%; in test [2], 100%; in test [3], 0%.

As to `Oc1ccc(-c2cc(-c3cccc(C(F)(F)F)c3)nc3c2Cc2ccc(O)cc2-3)cc1`, the IC50 turned out to be 2.77 µM in the test on HCT-15, 4.69 µM with T47D, 2.15 µM with DU-145 and 3.06 µM with HeLa. Further, the inhibition in test [1] stood at 8.5%; in test [2], 87.1%; in test [3], 11.1%.

Consider `Oc1ccc(-c2cc(-c3cccc(C(F)(F)F)c3)nc3c2Cc2c(O)cccc2-3)cc1`, for which the IC50 is 2.62 µM with HCT-15, 1.23 µM in the test on T47D, 1.75 µM with DU-145 and 4.57 µM in the test on HeLa. The inhibition came to 9.4% in test [1], 84.4% in test [2] and 0% in test [3].

As to `Oc1ccc2c(c1)-c1nc(-c3ccc(Cl)cc3)cc(-c3ccccc3O)c1C2`, the IC50 is 1.78 µM with HCT-15, 0.72 µM in the test with T47D, 0.49 µM with DU-145 and 4.61 µM in the test with HeLa. The inhibition worked out at 8% in test [1], 86.6% in test [2] and 25.7% in test [3].

Regarding `Oc1ccc(-c2cc(-c3ccccc3Cl)nc3c2Cc2cccc(O)c2-3)cc1`, the IC50 in the test with HCT-15 came out at 2.97 µM; in the test with T47D, 0.61 µM; with DU-145, 0.19 µM; in the test on HeLa, 2.85 µM. The inhibition in test [1] is 0%; in test [2], 30.3%; in test [3], 3.6%.

Take `Oc1ccc(-c2cc(-c3ccccc3Cl)c3c(n2)-c2cc(O)ccc2C3)cc1`: the IC50 in the test with HCT-15 came to 2.91 µM; in the test on T47D, 1.64 µM; in the test with DU-145, 4.65 µM; in the test on HeLa, 6.5 µM. In addition, the inhibition in test [1] was 4%; in test [2], 74.8%; in test [3] it was 2%.

Take `Oc1ccc(-c2cc(-c3ccccc3Cl)nc3c2Cc2ccc(O)cc2-3)cc1`: the IC50 is 3.04 µM with HCT-15, 0.95 µM in the test on T47D, 0.54 µM in the test with DU-145 and 3.22 µM in the test with HeLa. Further, the results for the inhibition in test [1], in test [2] and in test [3] were 0%, 80.9% and 19.2%, respectively.

In the case of `Oc1ccc2c(c1)Cc1c(-c3ccccc3O)cc(-c3ccc(C(F)(F)F)cc3)nc1-2`, the IC50 in the test with HCT-15 turned out to be 4.33 µM; in the test with T47D, 0.83 µM; in the test on DU-145, 2.09 µM; in the test on HeLa it was 7.87 µM. Further, the inhibition in test [1] was determined as 0%; in test [2], 99.9%; in test [3], 11.9%.

Consider `Oc1ccccc1-c1cc(-c2ccc(C(F)(F)F)cc2)nc2c1Cc1c(O)cccc1-2`, for which the IC50 in the test on HCT-15 was determined as 4.54 µM; in the test on T47D, 1.33 µM; in the test with DU-145, 3.46 µM; in the test with HeLa, 6.14 µM. In addition, the inhibition was 0% in test [1], 98.9% in test [2] and 2.4% in test [3].

As to `Oc1cccc2c1Cc1c(-c3ccccc3)cc(-c3ccccc3)nc1-2`, the IC50 is 3.39 µM in the test on HCT-15, 1.77 µM in the test on T47D, 2.71 µM in the test with DU-145 and 4.18 µM in the test on HeLa. Also, the inhibition is 4.6% in test [1], 75.7% in test [2] and 1.3% in test [3].

Take `Oc1cccc(-c2cc(-c3ccccc3Cl)nc3c2Cc2ccc(O)cc2-3)c1`: the IC50 was 3.04 µM in the test with HCT-15, 0.55 µM in the test on T47D, 0.57 µM in the test with DU-145 and more than 50 µM in the test with HeLa. The inhibition in test [1] was 3.9%; in test [2] it was 88.7%; in test [3] it was 38.3%.

As for `Oc1cccc(-c2cc(-c3ccc(Cl)cc3)c3c(n2)-c2cc(O)ccc2C3)c1`, the IC50 is more than 50 µM with HCT-15, more than 50 µM in the test with T47D, 32.2 µM in the test on DU-145 and more than 50 µM in the test with HeLa. The inhibition in test [1] turned out to be 7.3%; in test [2], 80.4%; in test [3] it was 12.4%.

Turning to `Oc1cccc(-c2cc(-c3cccc(Cl)c3)c3c(n2)-c2cc(O)ccc2C3)c1`, the IC50 in the test on HCT-15 is 6.6 µM; in the test on T47D, 7.2 µM; in the test with DU-145, 3.22 µM; with HeLa, 6.24 µM. In addition, the inhibition was determined as 11.6% in test [1], 76.3% in test [2] and 3.5% in test [3].

As to `Oc1ccc2c(c1)-c1nc(-c3cccc(F)c3)cc(-c3ccccc3O)c1C2`, the 50% inhibitory concentration (IC50) in the test on HCT-15 worked out at 2.9 µM; in the test with T47D, 0.68 µM; in the test on DU-145, 0.86 µM; in the test with HeLa it was 4.22 µM. Moreover, the inhibition turned out to be 0% in test [1] and 28.3% in test [2].

The record behind these values is ChEMBL document CHEMBL4373715, “Discovery and Biological Evaluations of Halogenated 2,4-Diphenyl Indeno[1,2-b]pyridinol Derivatives as Potent Topoisomerase IIα-Targeted Chemotherapeutic Agents for Breast Cancer” (J Med Chem, 2019).
